According to ChEMBL document CHEMBL1201862, “PubChem BioAssay data set” (2004):
Counter-ions that a name gives are not always drawn.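 Each compound was tested at five concentrations against cells in 96-well plates for 48 hours. At the GI50, growth is halved.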 The source made the active and inactive calls. Rule as the data show it: active = GI50 up to about 1.1 µM and inactive = higher.

Experiments:
Assay in all cases: NCI-60 cell line screen, 48 h
ACHN = tested on: ACHN
SK-OV-3 = tested on: SK-OV-3
SK-MEL-2 = tested on: SK-MEL-2
COLO 205 = tested on: COLO 205
SW-620 = tested on: SW-620
U-251 = tested on: U-251
LOX IMVI = tested on: LOX IMVI
A549 = tested on: A549
TK-10 = tested on: TK-10
HOP-62 = tested on: HOP-62
SK-MEL-5 = tested on: SK-MEL-5
IGROV-1 = tested on: IGROV-1
RPMI-8226 = tested on: RPMI-8226
UO-31 = tested on: UO-31
HCT-116 = tested on: HCT-116
OVCAR-8 = tested on: OVCAR-8
UACC-62 = tested on: UACC-62
SR = tested on: SR

| SMILES | GI50 (ACHN) | GI50 (SK-OV-3) | GI50 (SK-MEL-2) | GI50 (COLO 205) | GI50 (SW-620) | GI50 (U-251) | GI50 (LOX IMVI) | GI50 (A549) | GI50 (TK-10) | GI50 (HOP-62) | GI50 (SK-MEL-5) | GI50 (IGROV-1) | GI50 (RPMI-8226) | GI50 (UO-31) | GI50 (HCT-116) | GI50 (OVCAR-8) | GI50 (UACC-62) | GI50 (SR) |
| --- | --- | --- | --- | --- | --- | --- | --- | --- | --- | --- | --- | --- | --- | --- | --- | --- | --- | --- |
| O=C1CCC(=O)C1=NNc1cc(Cl)cc(Cl)c1 | > 100 µM (inactive) | > 100 µM (inactive) | > 100 µM (inactive) | 36.6 µM (inactive) | > 100 µM (inactive) | 69.2 µM (inactive) | > 100 µM (inactive) | > 100 µM (inactive) | > 100 µM (inactive) | > 100 µM (inactive) | 61.5 µM (inactive) | > 100 µM (inactive) | 32.7 µM (inactive) | > 100 µM (inactive) | 76.4 µM (inactive) | > 100 µM (inactive) | > 100 µM (inactive) |  |
| O=c1[nH]c(C2CCCCC2)nc2c(Cl)cccc12 | > 100 µM (inactive) | > 100 µM (inactive) | > 100 µM (inactive) | > 100 µM (inactive) | > 100 µM (inactive) | > 100 µM (inactive) |  | > 100 µM (inactive) | > 100 µM (inactive) | > 100 µM (inactive) | > 100 µM (inactive) | > 100 µM (inactive) |  | > 100 µM (inactive) | > 100 µM (inactive) | > 100 µM (inactive) | > 100 µM (inactive) |  |
| O=C(Nc1ccccc1[N+](=O)[O-])/C(=N/Nc1cccc(Cl)c1)c1c(O)c2ccccc2oc1=O | > 100 µM (inactive) | > 100 µM (inactive) | > 100 µM (inactive) | 17.7 µM (inactive) | 40.9 µM (inactive) |  | > 100 µM (inactive) | > 100 µM (inactive) | > 100 µM (inactive) |  | 49.4 µM (inactive) | 89.3 µM (inactive) |  | > 100 µM (inactive) | 22.9 µM (inactive) |  | 42.2 µM (inactive) | 0.0357 µM (active) |
| CN(C)c1ccc(/C=c2\sc3nnc(-c4ccco4)n3c2=O)cc1 |  | > 100 µM (inactive) | > 100 µM (inactive) | > 100 µM (inactive) | > 100 µM (inactive) | 57.8 µM (inactive) | > 100 µM (inactive) | > 100 µM (inactive) | > 100 µM (inactive) | > 100 µM (inactive) | > 100 µM (inactive) | > 100 µM (inactive) | > 100 µM (inactive) | > 100 µM (inactive) | > 100 µM (inactive) | > 100 µM (inactive) | > 100 µM (inactive) |  |
| COC(=O)C1=CN(C2CCCCC2)C2(c3ccccc3)c3ccccc3C(=O)OC(=O)C12 (stereo not drawn) | > 100 µM (inactive) | > 100 µM (inactive) | > 100 µM (inactive) | 72.8 µM (inactive) | > 100 µM (inactive) | 99.3 µM (inactive) | 42.3 µM (inactive) | 95.5 µM (inactive) | > 100 µM (inactive) | 90.8 µM (inactive) | > 100 µM (inactive) | > 100 µM (inactive) |  | > 100 µM (inactive) | 64.9 µM (inactive) | > 100 µM (inactive) |  |  |
| O=C1CSc2ccncc2N1 | > 100 µM (inactive) |  | > 100 µM (inactive) | > 100 µM (inactive) | > 100 µM (inactive) | > 100 µM (inactive) | > 100 µM (inactive) | > 100 µM (inactive) | > 100 µM (inactive) | > 100 µM (inactive) | > 100 µM (inactive) | > 100 µM (inactive) |  | > 100 µM (inactive) | > 100 µM (inactive) | > 100 µM (inactive) | > 100 µM (inactive) | > 100 µM (inactive) |
| COc1nc(NC2OC(COC(C)=O)C(OC(C)=O)C(OC(C)=O)C2OC(C)=O)c2c(OC(C)=O)c(C)c(=O)oc2n1 (stereo not drawn) | 1.7 µM (inactive) | > 100 µM (inactive) | > 100 µM (inactive) | > 100 µM (inactive) | > 100 µM (inactive) | > 100 µM (inactive) | > 100 µM (inactive) | > 100 µM (inactive) | > 100 µM (inactive) | > 100 µM (inactive) | > 100 µM (inactive) | > 100 µM (inactive) | > 100 µM (inactive) | > 100 µM (inactive) | > 100 µM (inactive) | > 100 µM (inactive) | > 100 µM (inactive) |  |
| Nc1nc(NCCO)c(N=O)c(=O)[nH]1 | > 100 µM (inactive) | > 100 µM (inactive) | > 100 µM (inactive) | > 100 µM (inactive) | > 100 µM (inactive) | > 100 µM (inactive) | > 100 µM (inactive) | > 100 µM (inactive) | > 100 µM (inactive) | > 100 µM (inactive) | > 100 µM (inactive) | > 100 µM (inactive) | > 100 µM (inactive) | > 100 µM (inactive) | > 100 µM (inactive) | > 100 µM (inactive) | > 100 µM (inactive) |  |
| COC1CC(OC)C(O)C(CO)O1 (stereo not drawn) | > 100 µM (inactive) | > 100 µM (inactive) | > 100 µM (inactive) |  | > 100 µM (inactive) | > 100 µM (inactive) | > 100 µM (inactive) | > 100 µM (inactive) | > 100 µM (inactive) | > 100 µM (inactive) | > 100 µM (inactive) | > 100 µM (inactive) |  | > 100 µM (inactive) | > 100 µM (inactive) | > 100 µM (inactive) | > 100 µM (inactive) | > 100 µM (inactive) |
| CCOC(=O)c1sc2c(C(=O)OCC)n3cc(C)cc(C)c3c2c1O | > 100 µM (inactive) | > 100 µM (inactive) | > 100 µM (inactive) | > 100 µM (inactive) | > 100 µM (inactive) | > 100 µM (inactive) | > 100 µM (inactive) | > 100 µM (inactive) | > 100 µM (inactive) |  | > 100 µM (inactive) | > 100 µM (inactive) |  | > 100 µM (inactive) | > 100 µM (inactive) | > 100 µM (inactive) | > 100 µM (inactive) | > 100 µM (inactive) |
| NC(=O)NNC(=O)NC12CC3CC(CC(C3)C1)C2 | > 100 µM (inactive) | > 100 µM (inactive) | > 100 µM (inactive) | > 100 µM (inactive) | > 100 µM (inactive) | > 100 µM (inactive) | > 100 µM (inactive) | > 100 µM (inactive) | > 100 µM (inactive) | > 100 µM (inactive) | > 100 µM (inactive) | > 100 µM (inactive) |  | > 100 µM (inactive) | > 100 µM (inactive) | > 100 µM (inactive) | > 100 µM (inactive) |  |
| CCOC(=O)C12CCCC1(O)N(NC(=O)c1ccccc1)C(C)=C2C(=O)OC (stereo not drawn) | > 100 µM (inactive) | > 100 µM (inactive) | > 100 µM (inactive) | > 100 µM (inactive) | > 100 µM (inactive) | > 100 µM (inactive) | > 100 µM (inactive) | > 100 µM (inactive) | > 100 µM (inactive) | > 100 µM (inactive) |  | > 100 µM (inactive) | > 100 µM (inactive) | > 100 µM (inactive) | > 100 µM (inactive) | > 100 µM (inactive) | > 100 µM (inactive) |  |
| Cc1cc(C)nc(NS(=O)(=O)c2ccc(NC(=O)c3ccc(Cl)c4c(Nc5ccc(S(=O)(=O)Nc6nc(C)cc(C)n6)cc5)c5ccccc5nc34)cc2)n1 | 26.9 µM (inactive) | 13.7 µM (inactive) | 13.7 µM (inactive) | 15.9 µM (inactive) | 18.2 µM (inactive) | 3.24 µM (inactive) | 3.91 µM (inactive) | 22.8 µM (inactive) | 33.4 µM (inactive) | 6.44 µM (inactive) | 17.7 µM (inactive) | 3.31 µM (inactive) | 3.72 µM (inactive) | 24.9 µM (inactive) | 1.82 µM (inactive) | 17.4 µM (inactive) | 2.04 µM (inactive) |  |
| COc1cc2[nH]c3c(c2cc1OC)CCN[C@]31CC[C@]2(CC3c4c(cc(OC)c(O)c42)CCN3C)C[C@H]1OC (stereo partly drawn) | 24.8 µM (inactive) | 25.8 µM (inactive) |  | 13.7 µM (inactive) | 22.3 µM (inactive) | 18 µM (inactive) | 24.3 µM (inactive) | 25.1 µM (inactive) | 21.6 µM (inactive) | 21.8 µM (inactive) | 15 µM (inactive) | 22.5 µM (inactive) | 15.2 µM (inactive) | > 10 µM (inactive) | 15.6 µM (inactive) | 19.6 µM (inactive) | 25 µM (inactive) | 15.8 µM (inactive) |
| O=C1Cc2c([nH]c3ccccc23)-c2cc(Br)ccc2N1 | > 100 µM (inactive) | > 100 µM (inactive) | > 100 µM (inactive) | > 100 µM (inactive) | > 100 µM (inactive) | > 100 µM (inactive) | > 100 µM (inactive) | > 100 µM (inactive) | > 100 µM (inactive) | > 100 µM (inactive) | > 100 µM (inactive) | > 100 µM (inactive) | > 100 µM (inactive) | > 100 µM (inactive) | > 100 µM (inactive) | > 100 µM (inactive) |  |  |
| COC(=O)C1=CO[C@@H](C)[C@@H]2Cn3ccc4c5ccccc5nc-4c3C[C@H]12 [ALSTONINE HYDROCHLORIDE] | > 100 µM (inactive) | > 100 µM (inactive) | > 100 µM (inactive) | > 100 µM (inactive) | > 100 µM (inactive) | > 100 µM (inactive) | > 100 µM (inactive) | > 100 µM (inactive) | > 100 µM (inactive) | > 100 µM (inactive) | 61.2 µM (inactive) | > 100 µM (inactive) | 84.3 µM (inactive) | > 100 µM (inactive) | > 100 µM (inactive) | > 100 µM (inactive) | > 100 µM (inactive) |  |
